Where two headings read alike, the source gives them in different places.
Biological target: human CB2R (Homo sapiens, UniProt P34972)
Experiment: CB2R mediated modulation of cAMP synthesis
Assay type: cell-based
Procedure, shortened: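 cAMP measured with the DiscoverX-XS kit after 30 min, 37° C. compound exposure of human CB2R-expressing CHO cells stimulated by 10 uM forskolin (1 mM IBMX, 0.25% BSA).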

[1] = CHO cells expressing human CB2R, inhibition of forskolin-stimulated cAMP synthesis, mean, read-out: CB2 CAMP @ EC50 nM (mean)

Chain of human CB2R (P34972 whole entry): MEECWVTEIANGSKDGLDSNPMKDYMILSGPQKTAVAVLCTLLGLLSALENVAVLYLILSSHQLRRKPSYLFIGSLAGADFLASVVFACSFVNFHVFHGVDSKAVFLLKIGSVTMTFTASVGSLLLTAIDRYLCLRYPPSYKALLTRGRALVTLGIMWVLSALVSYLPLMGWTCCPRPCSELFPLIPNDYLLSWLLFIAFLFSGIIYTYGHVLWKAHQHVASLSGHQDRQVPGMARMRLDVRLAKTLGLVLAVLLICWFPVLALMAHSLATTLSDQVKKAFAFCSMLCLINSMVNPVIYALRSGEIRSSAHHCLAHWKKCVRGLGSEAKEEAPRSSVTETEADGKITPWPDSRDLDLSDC

| SMILES | EC50 | EC50 [1] |
| --- | --- | --- |
| CC(C)(C)Cc1cc(NC(=O)[C@@H]2CCCN2CC2CC2)on1 [(S)-1-Cyclopropylmethyl-pyrrolidine-2-carboxylic acid [3-(2,2-dimethyl-propyl)-isoxazol-5-yl]-amide] | 22.3 nM |  |
| CC(C)N1CCC[C@H]1C(=O)Nc1cc(C(C)(C)C)no1 [(S)-1-Isopropyl-pyrrolidine-2-carboxylic acid (3-tert-butyl-isoxazol-5-yl)-amide] | 163 nM |  |
| CC(C)(C)c1cc(NC(=O)[C@@H]2CCCN2c2ncccn2)on1 [(S)-1-Pyrimidin-2-yl-pyrrolidine-2-carboxylic acid (3-tert-butyl-isoxazol-5-yl)-amide] |  | 109 nM |
| CC(C)(C)c1cc(NC(=O)[C@]2(C)CCCN2c2ccc(C(F)(F)F)cc2)no1 [(S)-2-Methyl-1-(4-trifluoromethyl-phenyl)-pyrrolidine-2-carboxylic acid (5-tert-butyl-isoxazol-3-yl)-amide] | 0.199 nM |  |
| C[C@@]1(C(=O)Nc2nc(-c3ccccc3)ns2)CCCN1c1ccc(C(F)(F)F)cn1 [(S)-2-Methyl-1-(5-trifluoromethyl-pyridin-2-yl)-pyrrolidine-2-carboxylic acid (3-phenyl-1,2,4-thiadiazol-5-yl)-amide] | 0.136 nM |  |
| CC(C)(C)c1cc(NC(=O)[C@]2(C)CCCN2c2ccc(C(F)(F)F)cn2)no1 [(S)-2-Methyl-1-(5-trifluoromethyl-pyridin-2-yl)-pyrrolidine-2-carboxylic acid (5-tert-butyl-isoxazol-3-yl)-amide] | 0.015 nM |  |
| C[C@@]1(C(=O)Nc2ccc(C(F)(F)F)cn2)CCCN1c1ccc(C(F)(F)F)cn1 [(S)-2-Methyl-1-(5-trifluoromethyl-pyridin-2-yl)-pyrrolidine-2-carboxylic acid (5-trifluoromethyl-pyridin-2-yl)-amide] | 0.634 nM |  |
| CC(C)(C)c1cc(NC(=O)[C@@H]2CCC(=O)N2c2cc(F)c(F)c(F)c2)on1 [(S)-5-Oxo-1-(3,4,5-trifluoro-phenyl)-pyrrolidine-2-carboxylic acid (3-tert-butyl-isoxazol-5-yl)-amide] | 80 nM |  |
| CC(C)(C)c1cc(NC(=O)[C@@H]2CCC(=O)N2c2cc(F)c(F)c(F)c2)no1 [(S)-5-Oxo-1-(3,4,5-trifluoro-phenyl)-pyrrolidine-2-carboxylic acid (5-tert-butyl-isoxazol-3-yl)-amide] | 74.7 nM |  |
| CC(C)(C)c1cc(NC(=O)[C@@H]2CCC(=O)N2c2ccc(OC(F)(F)F)cc2)on1 [(S)-5-Oxo-1-(4-trifluoromethoxy-phenyl)-pyrrolidine-2-carboxylic acid (3-tert-butyl-isoxazol-5-yl)-amide] | 34.5 nM |  |
| CC(C)(C)c1cc(NC(=O)[C@@H]2CCC(=O)N2c2ccc(OC(F)(F)F)cc2)no1 [(S)-5-Oxo-1-(4-trifluoromethoxy-phenyl)-pyrrolidine-2-carboxylic acid (5-tert-butyl-isoxazol-3-yl)-amide] | 132 nM |  |
| CC(C)c1cc(NC(=O)[C@@H]2CCC(=O)N2c2ccc(C(F)(F)F)cc2)on1 [(S)-5-Oxo-1-(4-trifluoromethyl-phenyl)-pyrrolidine-2-carboxylic acid (3-isopropyl-isoxazol-5-yl)-amide] | 41.8 nM |  |
| CCC(C)c1cc(NC(=O)[C@@H]2CCC(=O)N2c2ccc(C(F)(F)F)cc2)on1 (stereo partly drawn) [(S)-5-Oxo-1-(4-trifluoromethyl-phenyl)-pyrrolidine-2-carboxylic acid (3-sec-butyl-isoxazol-5-yl)-amide] | 40.9 nM |  |
| CC(C)(C)c1cc(NC(=O)[C@@H]2CCC(=O)N2c2ccc(C(F)(F)F)cc2)sn1 [(S)-5-Oxo-1-(4-trifluoromethyl-phenyl)-pyrrolidine-2-carboxylic acid (3-tert-butyl-isothiazol-5-yl)-amide] | 112 nM |  |
| CC(C)(C)c1cc(NC(=O)[C@@H]2CCC(=O)N2c2ccc(C(F)(F)F)cc2)no1 [(S)-5-Oxo-1-(4-trifluoromethyl-phenyl)-pyrrolidine-2-carboxylic acid (5-tert-butyl-isoxazol-3-yl)-amide] | 5.76 nM |  |
| COc1ccc(-c2nsc(NC(=O)[C@@H]3CCC(=O)N3c3ccc(C(F)(F)F)cc3)n2)cc1 [(S)-5-Oxo-1-(4-trifluoromethyl-phenyl)-pyrrolidine-2-carboxylic acid [3-(4-methoxy-phenyl)-1,2,4-thiadiazol-5-yl]-amide] |  | 178 nM |
| CC(C)(CO)c1cc(NC(=O)[C@@H]2CCC(=O)N2c2ccc(C(F)(F)F)cc2)no1 [(S)-5-Oxo-1-(4-trifluoromethyl-phenyl)-pyrrolidine-2-carboxylic acid [5-(2-hydroxy-1,1-dimethyl-ethyl)-isoxazol-3-yl]-amide] | 80.8 nM |  |
| COCC(C)(C)c1cc(NC(=O)[C@@H]2CCC(=O)N2c2ccc(C(F)(F)F)cc2)no1 [(S)-5-Oxo-1-(4-trifluoromethyl-phenyl)-pyrrolidine-2-carboxylic acid [5-(2-methoxy-1,1-dimethyl-ethyl)-isoxazol-3-yl]-amide] | 15.2 nM |  |
| C=Cc1ccc(N2C(=O)CC[C@H]2C(=O)Nc2cc(C(C)(C)C)no2)cc1 [(S)-5-Oxo-1-(4-vinyl-phenyl)-pyrrolidine-2-carboxylic acid (3-tert-butyl-isoxazol-5-yl)-amide] | 20.3 nM |  |
| C=Cc1ccc(N2C(=O)CC[C@H]2C(=O)Nc2cc(C(C)(C)C)on2)cc1 [(S)-5-Oxo-1-(4-vinyl-phenyl)-pyrrolidine-2-carboxylic acid (5-tert-butyl-isoxazol-3-yl)-amide] | 70 nM |  |
| Cc1ccc(N2C(=O)CC[C@H]2C(=O)Nc2cc(C(C)(C)C)no2)cc1 [(S)-5-Oxo-1-p-tolyl-pyrrolidine-2-carboxylic acid (3-tert-butyl-isoxazol-5-yl)-amide] | 163 nM |  |
| CC(C)(C)c1cc(NC(=O)[C@@H]2CCC(=O)N2c2ccccn2)on1 [(S)-5-Oxo-1-pyridin-2-yl-pyrrolidine-2-carboxylic acid (3-tert-butyl-isoxazol-5-yl)-amide] | 136 nM |  |
| Cc1ccc(N2C(=O)CC[C@H]2C(=O)Nc2cc(C(C)(C)C)no2)cc1Cl [(S)-l-(3-Chloro-4-methyl-phenyl)-5-oxo-pyrrolidine-2-carboxylic acid (3-tert-butyl-isoxazol-5-yl)-amide] | 77.4 nM |  |
| Cc1ccc(N2C(=O)CC[C@H]2C(=O)Nc2cc(C(C)(C)C)on2)cc1Cl [(S)-l-(3-Chloro-4-methyl-phenyl)-5-oxo-pyrrolidine-2-carboxylic acid (5-tert-butyl-isoxazol-3-yl)-amide] |  | 333 nM |
| COCC(C)(C)c1cc(NC(=O)[C@@H]2CCC(=O)N2c2ccc(Cl)cc2)on1 [(S)-l-(4-Chloro-phenyl)-5-oxo-pyrrolidine-2-carboxylic acid [3-(2-methoxy-1,1-dimethyl-ethyl)-isoxazol-5-yl]-amide] | 48.7 nM |  |
| COCC(C)(C)c1cc(NC(=O)[C@@H]2CCC(=O)N2c2ccc(Cl)cc2)no1 [(S)-l-(4-Chloro-phenyl)-5-oxo-pyrrolidine-2-carboxylic acid [5-(2-methoxy-1,1-dimethyl-ethyl)-isoxazol-3-yl]-amide] | 86.1 nM |  |
| CCCN1CCC[C@H]1C(=O)Nc1nc(C(C)(C)C)cs1 [Example 187, (S)-1-Propyl-pyrrolidine-2-carboxylic acid (4-tert-butyl-thiazol-2-yl)-amide] | 159 nM |  |
| CC(C)(C)OC(=O)CN1CCC[C@H]1C(=O)Nc1cc(C(C)(C)C)no1 [[(S)-2-(3-tert-Butyl-isoxazol-5-ylcarbamoyl)-pyrrolidin-1-yl]-acetic acid tert-butyl ester] | 0.1 nM |  |
